Entries after “also recorded” stand apart in the source; their conditions may differ.
Key:
[1] = tested on: mouse collagen-induced arthritis (CIA); experiment: Mouse collagen-induced arthritis (CIA) model; format: in vivo, DBA/J1 mice; settings: dosing from day 18
Experimental: Male DBA/J1 mice (7-9 weeks old from Jackson Labs, Bar Harbor, Me., USA) were used. The CIA study using mice of same age, strain and source was performed at Boulder BioPATH Inc as described below. Male DBA/J1 mice were shaved at the base of the tail and injected with 0.1 ml emulsion consisting of a 1 to 1 (1 mg/l mg) mixture of type II chicken collagen with Mycobacterium butyricum (Difco) as an adjuvant. Three weeks later, the mice were boosted with another 0.1 ml injection of emulsion at the base of the tail to induce disease. Dosing started at day 18 while the last boost to induce the disease was at day 21. The mice were scored in a blinded manner twice weekly for 3 weeks for signs of arthritis in each paw according to the following scale: clinical signs were evaluated using the following scale: 0=normal; 1=one joint affected or mild diffuse erythema and swelling; 2=two joints affected or mild diffuse erythema and swelling; 3=three joints affected or mild diffuse erythema and swelling; 4=four joint affected or marked diffuse erythema and swelling; and 5=severe erythema and severe swelling. Upon study completion (day 28), mice were killed with CO2.

[2] = tested on: rat adjuvant induced arthritis (AIA), established disease; settings: male rats, 2.5 mg/kg IP every other day from day 16 to day 40, left and right paw; listed as TC 5, 2.5 mg/kg
[3] = tested on: rat adjuvant induced arthritis (AIA); experiment: Prophylactic model of rat adjuvant induced arthritis (AIA); settings: for joint damage (radiographs; CT scan at 2.5 mg/kg): 2.5 mg/kg/day and 500 μg/kg/day IP; for paw inflammation (paw volume), dose effect: 2.5 mg/kg/day and 500 μg/kg/day IP from day 10, left and right paw; for joint histology (H&E staining): limb at study end
[4] = tested on: rat adjuvant induced arthritis (AIA); settings: in vivo, ip, 5 mg/kg/day
[5] = male rats, 500 μg/kg/day IP from day 10
[6] = male rats, 10 mg/kg/day IP from day 10 for 14 days, left and right paw, 10 mg/kg/day
[7] = male rats, 10 mg/kg/day IP, 10 mg/kg/day
[8] = male rats, 10 mg/kg/day IP, limbs at study end, 10 mg/kg/day
[9] = male rats, 5 mg/kg/day IP from day 10 for 14 days, right paw, 5 mg/kg/day

SMILES: c1ccc(-c2ccc(C(c3ccccc3)n3ccnc3)cc2)cc1 (stereo not drawn) [TC5, 1-[phenyl(4-phenylphenyl)methyl]-1H-imidazole]
- clinical scoring of the paws (clinical signs of arthritis) ([1]; male mice, 2.5 and 0.25 mg/kg IP): significant prevention of arthritis with inhibition comparable to ENBREL
- clinical scoring of the paws (clinical signs of arthritis) ([1]; male mice, 2.5 and 0.25 mg/kg IP, listed as TC 5): inhibited clinical signs of the disease comparable to ENBREL treated groups
- clinical scoring of the paws (clinical signs of arthritis) ([1]; male mice, 2.5 and 0.25 mg/kg IP, listed as bifonazole): can reduce paw inflammation
- paw inflammation (paw volume) [2]: halted the progression of the disease
- paw inflammation (paw volume) [3, 5]: maximum inhibition observed at the 500 μg/kg/day
- paw inflammation (paw volume) ([3]; male rats, 500 μg/kg/day IP from day 10, listed as TC 5): also reduced paw inflammation
- paw inflammation (paw volume) ([3]; male rats, 2.5 mg/kg/day IP from day 10): demonstrated maximal effect similar to ENBREL
- joint damage (radiographs; CT scan at 2.5 mg/kg) ([3]; male rats): effective is preserving the joint damage at both concentrations; also recorded: able to prevent significant joint damage compared to the disease control in a dose dependent manner
- paw inflammation (paw volume), dose effect ([3]; male rats): can prevent development and progression of rat adjuvant induced arthritis dose dependently
- paw inflammation (paw volume) [3, 6]: reduced paw inflammation to control levels similar to those observed for ENBREL
- paw inflammation (paw volume) ([3]; male rats, 10 mg/kg/day IP from day 10 for 14 days, left and right paw, listed as bifonazole, 10 mg/kg/day): can reduce paw inflammation
- joint histology (H&E staining) [3, 7]: minimal inflammation, reduced bone proliferation, preservation of the cartilage, and preservation of the synovial membrane; also recorded: significant preservation of the synovium membrane (white space), significant preservation of the cartilage (space between the 2 blue lines), and minor bone proliferation
- joint damage (radiographs, CT scans) [3, 8]: prevents joint damage similar to those from ENBREL treated group; also recorded: able to prevent significant joint damage compared to the disease control; also recorded: significant reduction in bone damage in treated animals compared to diseased animals
- joint damage (radiographs, CT scans) ([3]; male rats, 10 mg/kg/day IP, limbs at study end, listed as bifonazole, 10 mg/kg/day): can reduce paw inflammation (FIGS. 1-2) and ankle damage
- joint damage (radiographs; CT scan of 500 μg/Kg oral group) ([3]; male rats, 5, 2.5 and 0.5 mg/kg/day oral gavage): effective in preserving the joint damage at all three concentrations tested; also recorded: significant reduction in bone damage in treated animals compared to diseased animals
- paw inflammation (paw volume) ([3]; male rats, 5, 2.5 and 0.5 mg/kg/day oral gavage from day 10): not as effective as the IP dosing
- paw inflammation (paw volume) ([3]; male rats, 5, 2.5 and 0.5 mg/kg/day oral gavage from day 10, listed as TC 5): dose dependent with the highest dose demonstrated maximal effect

SMILES: COc1ccc(C(Cl)=C(c2ccc(OC)cc2)c2ccc(OC)cc2)cc1 [TC10, 1,1′,1″-(2-chloroethene-1,1,2-triyl)tris(4-methoxybenzene)]
- clinical scoring of the paws (clinical signs of arthritis) ([1]; male mice, 25, 2.5 and 0.25 mg/kg IP): All three doses inhibited clinical signs of the disease; also recorded: significant prevention of arthritis with inhibition greater than ENBREL at all tested doses
- clinical scoring of the paws (clinical signs of arthritis) ([1]; male mice, 25, 2.5 and 0.25 mg/kg IP, listed as chlorotrianisene): can reduce paw inflammation
- weight loss [4]: near negligible
- joint damage (radiographs) ([3]; female rats, 2.5 and 0.5 mg/kg/day IP): effective in preserving the joint damage at both concentrations tested; also recorded: able to prevent significant joint damage compared to the disease control
- paw inflammation (paw volume) ([3]; female rats, 2.5 and 0.5 mg/kg/day IP from day 10 for 12 days, listed as TC 10): inhibited at both doses
- paw inflammation (paw volume) ([3]; female rats, 5 and 2.5 mg/kg/day oral): prevented paw inflammation; also recorded: significant reduction in paw inflammation
- joint damage (radiographs) ([3]; female rats, oral, 5 mg/kg/day): effective in female rates in preserving joint damage
- paw inflammation (paw volume) [3, 5]: also reduced paw inflammation; also recorded: comparable results to ENBREL
- paw inflammation (paw volume) ([3]; male rats, 2.5 mg/kg/day IP from day 10, 2.5 mg/kg/day): maximal effect better than ENBREL with nearly complete inhibition of paw inflammation; also recorded: near complete prevention of arthritis bringing paw inflammation near the non-disease control; also recorded: maximum inhibition observed at 2.5 mg/kg/day dose bringing inflammation down to the non-disease control level
- joint damage (radiographs; CT scan at 2.5 mg/kg) ([3]; male rats): effective is preserving the joint damage at both concentrations; also recorded: shows preservation of the joint damage; also recorded: able to prevent significant joint damage at both doses 2.5 mg and 0.5 mg compared to the disease control in a dose dependent manner; also recorded: Joint damage was almost completely prevented with no joint damage
- paw inflammation (paw volume), dose effect ([3]; male rats): can prevent development and progression of rat adjuvant induced arthritis dose dependently with maximum effect observed at 2.5 dose
- paw inflammation (paw volume) [3, 9]: reduced paw inflammation to control levels similar to those observed for ENBREL
- paw inflammation (paw volume) ([3]; male rats, 5 mg/kg/day IP from day 10 for 14 days, right paw, listed as NM2026, 5 mg/kg/day): able to inhibit paw inflammation similar to the effects of ENBREL
- paw inflammation (paw volume) ([3]; male rats, 5 mg/kg/day oral gavage from day 10, 5 mg/kg/day): can prevent development and progression of rat adjuvant induced arthritis; also recorded: not as effective as the IP dosing
- paw inflammation (paw volume) ([3]; male rats, 5 mg/kg/day oral gavage from day 10, listed as TC 10, 5 mg/kg/day): inhibited paw inflammation to ENBREL controls
- joint damage (radiographs, CT scans) ([3]; male rats, 5 mg/kg/day oral gavage, 5 mg/kg/day): effectively preserves the joint damage; also recorded: able to prevent significant joint damage compared to the disease control at 5 mg/kg dose tested; also recorded: near complete prevention of joint destruction at 5 mg/kg/day compared to the diseased control
- paw inflammation (paw volume) [3, 6]: can prevent development and progression of rat adjuvant induced arthritis comparable to the effects of ENBREL; also recorded: able to inhibit paw inflammation similar to the effects of ENBREL
- paw inflammation (paw volume) ([3]; male rats, 10 mg/kg/day IP from day 10 for 14 days, left and right paw, listed as TC 10, 10 mg/kg/day): reduced paw inflammation to control levels similar to those observed for ENBREL
- joint histology (H&E staining) [3, 7]: minimal inflammation, reduced bone proliferation, preservation of the cartilage, and preservation of the synovial membrane; also recorded: significant preservation of the synovium membrane (white space), significant preservation of the cartilage (space between the 2 blue lines), and minor bone proliferation
- joint damage (radiographs, CT scans) [3, 8]: prevents joint damage similar to those from ENBREL treated group; also recorded: able to prevent significant joint damage compared to the disease control; also recorded: significant reduction in bone damage in treated animals compared to diseased animals

SMILES: CC/C(=C(\c1ccccc1)c1ccc(OCCN(C)C)cc1)c1ccccc1 [Tamoxifen, (Z)-2-[4-(1,2-diphenylbut-1-enyl)phenoxy]-N,N-dimethyl-ethanamine]
- paw inflammation (paw volume) [3, 9]: reduced paw inflammation to control levels similar to those observed for ENBREL
- paw inflammation (paw volume) ([3]; male rats, 5 mg/kg/day IP from day 10 for 14 days, right paw, listed as tamoxifen, 5 mg/kg/day): can reduce paw inflammation

Source: patent publication US9040507B2, “Method for treating inflammatory conditions” (Novelmed Therapeutics, Inc., priority 2008, dated 2015)
